Results on 19 compounds are retold here after ChEMBL document CHEMBL5113467, “Design, synthesis and evaluation of 2-(2-oxoethyl)pyrimidine-5-carboxamide derivatives as acetylcholinesterase inhibitors” (Bioorg Med Chem Lett, 2022).

The target of one assay is Cholinesterase (Homo sapiens, UniProt P06276). The experiment in a line: Inhibition of BuChE (unknown origin) using butyrylthiocholine iodide as substrate by DTNB reagent based Ellman's method.
Assay [1] concerns the target T1, Acetylcholinesterase (Homo sapiens, UniProt P22303). The assay can be described thus: Inhibition of AChE (unknown origin) using acetylthiocholine iodide as substrate by DTNB reagent based Ellman's method. (DTNB colorimetry detects thiols as they appear.)
Assay [2] addresses T1, Acetylcholinesterase. The assay can be described thus: Mixed type inhibition of AChE (unknown origin) using acetylthiocholine iodide as substrate by Lineweaver-Burk double reciprocal plot analysis.
Assay [3] addresses 5-hydroxytryptamine receptor 4 (Homo sapiens) (UniProt Q13639). The experiment in a line: Displacement of [3H]GR113808 from human 5-HT4 receptor expressed in Chem-1 cell membrane incubated for 60 mins by radiometric scintillation counting analysis relative to control. The settings on record: filed as agonist. Type of assay: cell membranes.

The structures appear in SMILES notation. Active and inactive are the calls of the source. No cut-off for these calls is given here.

T1 sequence (P22303 whole entry): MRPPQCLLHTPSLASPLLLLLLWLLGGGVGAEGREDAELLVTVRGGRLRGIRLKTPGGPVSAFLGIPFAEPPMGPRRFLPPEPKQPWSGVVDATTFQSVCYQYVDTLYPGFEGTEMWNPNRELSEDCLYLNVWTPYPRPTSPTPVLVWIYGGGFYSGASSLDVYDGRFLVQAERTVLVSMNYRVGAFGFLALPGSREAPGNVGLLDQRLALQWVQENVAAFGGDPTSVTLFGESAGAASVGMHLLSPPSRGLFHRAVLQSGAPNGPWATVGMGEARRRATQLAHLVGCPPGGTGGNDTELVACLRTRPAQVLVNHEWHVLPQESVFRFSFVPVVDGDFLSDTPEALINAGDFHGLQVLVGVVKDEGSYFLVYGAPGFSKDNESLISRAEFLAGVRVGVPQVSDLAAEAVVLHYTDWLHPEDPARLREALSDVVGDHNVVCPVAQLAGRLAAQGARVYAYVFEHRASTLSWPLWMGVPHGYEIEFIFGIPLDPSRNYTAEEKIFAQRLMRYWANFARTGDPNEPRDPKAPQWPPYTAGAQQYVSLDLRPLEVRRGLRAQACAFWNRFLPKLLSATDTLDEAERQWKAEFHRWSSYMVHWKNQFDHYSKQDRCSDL
Chain of Cholinesterase (P06276 whole entry): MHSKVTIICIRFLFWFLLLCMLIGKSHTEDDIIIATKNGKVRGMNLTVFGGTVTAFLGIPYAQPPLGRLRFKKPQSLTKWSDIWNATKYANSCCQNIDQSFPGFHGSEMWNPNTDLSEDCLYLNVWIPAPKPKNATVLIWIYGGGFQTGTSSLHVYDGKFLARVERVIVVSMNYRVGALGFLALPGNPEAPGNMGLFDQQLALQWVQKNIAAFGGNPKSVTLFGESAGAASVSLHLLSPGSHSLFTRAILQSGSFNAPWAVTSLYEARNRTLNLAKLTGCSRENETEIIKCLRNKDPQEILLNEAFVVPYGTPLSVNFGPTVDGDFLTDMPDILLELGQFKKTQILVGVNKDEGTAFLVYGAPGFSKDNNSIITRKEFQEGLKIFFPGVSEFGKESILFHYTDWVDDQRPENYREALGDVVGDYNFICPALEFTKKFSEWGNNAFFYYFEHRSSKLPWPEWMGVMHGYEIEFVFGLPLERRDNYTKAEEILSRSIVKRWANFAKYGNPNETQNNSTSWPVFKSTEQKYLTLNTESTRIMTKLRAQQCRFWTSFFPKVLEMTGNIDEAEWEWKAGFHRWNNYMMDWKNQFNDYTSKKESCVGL
Chain of 5-hydroxytryptamine receptor 4 (Homo sapiens) (Q13639 whole entry): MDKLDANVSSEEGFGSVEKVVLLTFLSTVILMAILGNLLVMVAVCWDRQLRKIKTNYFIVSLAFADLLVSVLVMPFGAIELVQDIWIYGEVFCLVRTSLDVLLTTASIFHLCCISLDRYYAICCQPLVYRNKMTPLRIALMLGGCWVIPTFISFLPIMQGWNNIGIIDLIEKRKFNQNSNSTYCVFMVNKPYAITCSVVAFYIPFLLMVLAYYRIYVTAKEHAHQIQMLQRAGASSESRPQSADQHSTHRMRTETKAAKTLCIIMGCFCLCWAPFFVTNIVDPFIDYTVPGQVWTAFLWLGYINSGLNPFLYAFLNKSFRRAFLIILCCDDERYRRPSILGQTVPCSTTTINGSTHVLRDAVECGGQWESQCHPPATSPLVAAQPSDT

The term IC50 denotes the concentration that inhibits the measured activity by half. Low values mean inhibition by little substance, high ones a need for much substance. As for `COc1ccc(C(=O)Cc2ncc(C(=O)N(C)CCCOc3c(F)c(F)c(F)c(F)c3F)cn2)cc1`, the IC50 against Cholinesterase is 28.9 µM; against Acetylcholinesterase [1] it was 5.14 µM.
As for `CCOc1ccc(C(=O)Cc2ncc(C(=O)N(C)CCCOc3ccc([N+](=O)[O-])cc3)cn2)cc1`, the IC50 on Cholinesterase came out at 6.66 µM; against Acetylcholinesterase [1] it was 6.4 µM.
`COc1ccc(C(=O)Cc2ncc(C(=O)NC3CCN(Cc4ccccc4)CC3)cn2)cc1`: the IC50 against Cholinesterase was 3.7 µM; on Acetylcholinesterase [1], 28 µM.
Broadly, the inhibition is the relative decrease from the control value, in per cent. Regarding `CN(CCCOc1ccc([N+](=O)[O-])cc1)C(=O)c1cnc(CC(=O)c2cccs2)nc1`, the IC50 was 10 µM on Cholinesterase and 0.88 µM at Acetylcholinesterase [1]. Further, the inhibition result at Acetylcholinesterase [2] is “Active”.
With `CN(CCCOc1ccc([N+](=O)[O-])cc1)C(=O)c1cnc(CC(=O)c2ccc3c(c2)OCO3)nc1`, the IC50 at Cholinesterase is 48.4 µM; on Acetylcholinesterase [1], 0.99 µM.
In the same order, the values of `COc1cccc(C(=O)Cc2ncc(C(=O)N(C)CCCOc3ccc([N+](=O)[O-])cc3)cn2)c1` are 2.59 µM and 4 µM.
The corresponding values for `COc1ccc(C(=O)Cc2ncc(C(=O)Nc3ccncc3)cn2)cc1` are 31.4 µM and 17.9 µM.
As to `CN(CCCOc1ccc([N+](=O)[O-])cc1)C(=O)c1cnc(CC(=O)c2ccccc2)nc1`, the results for the IC50 against Cholinesterase and at Acetylcholinesterase [1] were 6.08 µM and 9.94 µM, respectively.
Take `COc1ccc(C(=O)Cc2ncc(C(=O)N(C)CCCOc3cccc(OC)c3)cn2)cc1`: the IC50 against Cholinesterase was 8.36 µM; against Acetylcholinesterase [1] it was 44.9 µM.
The corresponding values for `COc1ccc(C(=O)Cc2ncc(C(=O)NCc3cccs3)cn2)cc1` are 3.45 µM and 30.7 µM.
As for `COc1ccc(C(=O)Cc2ncc(C(=O)N(C)CCCOc3ccc(C(F)(F)F)cc3)cn2)cc1`, the IC50 against Cholinesterase was determined as 6.24 µM; on Acetylcholinesterase [1] it was 29.8 µM.
The corresponding values for `COc1ccc(C(=O)Cc2ncc(C(=O)NCc3ccc(OC)c(OC)c3)cn2)cc1` are 30.7 µM and 10 µM.
`COc1ccc(C(=O)Cc2ncc(C(=O)N(C)CCCOc3ccc(OC)c(OC)c3)cn2)cc1`: the half-maximal inhibitory concentration (IC50) turned out to be 8.3 µM on Cholinesterase and 29.8 µM on Acetylcholinesterase [1].
Compound `COc1cc(N)c(Cl)cc1C(=O)CCC1CCN(CC2CCCCC2)CC1` showed an inhibition in assay [3] of 48.3%.
`COc1ccc(C(=O)Cc2ncc(C(=O)N3CCN(Cc4ccccc4)CC3)cn2)cc1`: the IC50 was determined as 5.7 µM on Cholinesterase and 17.3 µM against Acetylcholinesterase [1].
In the same order, the values of `COc1ccc(C(=O)Cc2ncc(C(=O)N(C)CCCOc3ccc([N+](=O)[O-])cc3)cn2)cc1OC` are 5.73 µM and 3.79 µM.
The corresponding values for `COc1ccc(OCCCN(C)C(=O)c2cnc(CC(=O)c3ccc(OC)cc3)nc2)cc1` are 9.16 µM and 9.82 µM.
For the compound `C/C=C1\[C@H]2C=C(C)C[C@]1(N)c1ccc(=O)[nH]c1C2` [HUPERZINE A], the IC50 against Cholinesterase was above 10000 µM.
With `COc1ccc(C(=O)Cc2ncc(C(=O)N(C)CCCOc3ccc([N+](=O)[O-])cc3)cn2)cc1`, the IC50 against Cholinesterase stood at 13.1 µM; on Acetylcholinesterase [1], 4.56 µM.
